Columns and labels:
[1] = tested on: CRC343 tumorgraft with MAP2K1 57K>N substitution; assay: Tumor growth in tumorgraft cohort CRC343; assay type: in vivo, NOD/SCID mice; details: CRC343, MAP2K1 57K>N; combination p<0.01, two-way ANOVA
[2] = tested on: CRC104 tumorgraft with EGFR 465G>E mutation; assay: Tumor growth in tumorgraft cohort CRC104; assay type: in vivo, NOD/SCID mice; details: CRC104, EGFR 465G>E; n=6 for each arm; p<0.01, two-way ANOVA
[3] = tested on: cetuximab-resistant tumors with 492S>R alterations in EGFR; details: EGFR 492S>R, previous reports (32); cited from earlier work
[4] = tested on: CRC477 tumorgraft with FGFR1 amplification; assay: Tumor growth in tumorgraft cohort CRC477; assay type: in vivo, NOD/SCID mice; details: 6 mice per cohort, combination p<0.01, two-way ANOVA

Compound: Cn1cnc2c(F)c(Nc3ccc(Br)cc3Cl)c(C(=O)NOCCO)cc21 [AZD6244]
- Tumor growth [1]: unproductive

Compound: panitumumab
- Tumor growth [2]: poorly sensitive
- Sensitivity of tumors to therapy [3]: sensitive

Compound: CCN1CCN(c2ccc(Nc3cc(N(C)C(=O)Nc4c(Cl)c(OC)cc(OC)c4Cl)ncn3)cc2)CC1 [BGJ398, 3-(2,6-dichloro-3,5-dimethoxy-phenyl)-1-{6-[4-(4-ethyl-piperazin-1-yl)-phenylamino]-pyrimidin-4-yl}-1-methyl-urea]
- Tumor growth [4]: resistant
